Tested on: Transport facilitation protein genes
Experiment: DNA chip mRNA expression in yeast, transport facilitation protein genes (Table 5)
Type: cell-based, Saccharomyces cerevisiae S288C
Outline: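 Chemical exposure: 2 h, log-phase S. cerevisiae S288C, YPD, 25° C., dose set to inhibit growth without death. Profiling: mRNA labeled by reverse transcription with Cy3- or Cy5-dUTP, hybridized to whole-genome array. Output: fluorescence ratio against untreated culture.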

Measured: The level of expressed mRNA in the presence of chemical substance/The level of expressed mRNA in the absence of chemical substance

C=CC=O [(14), acrolein]
1.2: yeast gene YDL245C | yeast gene YGL008C | yeast gene YGR055W | yeast gene YGR096W | yeast gene YIL088C | yeast gene YKR039W | yeast gene YLR295C | yeast gene YOL163W | yeast gene YOR348C
0.4: yeast gene YEL065W | yeast gene YLR378C | yeast gene YPR124W
1.5: yeast gene YBR052C | yeast gene YDR086C | yeast gene YDR298C | yeast gene YGR197C
1.1: yeast gene YBR132C | yeast gene YBR295W | yeast gene YCR098C | yeast gene YDL210W | yeast gene YHL040C | yeast gene YJL219W | yeast gene YOR332W | yeast gene YPL265W
2.4: yeast gene YOL119C
1.8: yeast gene YBR068C
1.3: yeast gene YBR294W | yeast gene YCL038C | yeast gene YER053C | yeast gene YGR065C | yeast gene YHR026W | yeast gene YKR067W | yeast gene YOR130C | yeast gene YPL271W
1.6: yeast gene YHR092C | yeast gene YKL016C
0.8: yeast gene YBL030C | yeast gene YCR024C-A | yeast gene YCR037C | yeast gene YDR038C | yeast gene YDR343C | yeast gene YDR345C | yeast gene YEL063C | yeast gene YFL011W | yeast gene YGL167C | yeast gene YHL035C | yeast gene YJL212C | yeast gene YOR328W
0.6: yeast gene YBL099W | yeast gene YBR127C | yeast gene YDR497C | yeast gene YHR094C | yeast gene YIL022W | yeast gene YJL034W | yeast gene YMR011W | yeast gene YPL036W
1.4: yeast gene YBR293W | yeast gene YEL027W | yeast gene YKL221W | yeast gene YLR092W | yeast gene YNL259C | yeast gene YPL134C | yeast gene YPL224C
1.0: yeast gene YDR270W | yeast gene YFL041W | yeast gene YFL050C | yeast gene YGL104C | yeast gene YGL255W | yeast gene YIL006W | yeast gene YIL056W | yeast gene YKL146W | yeast gene YLR081W | yeast gene YLR348C | yeast gene YMR162C | yeast gene YNR072W | yeast gene YOR316C | yeast gene YPR194C
0.7: yeast gene YCL025C | yeast gene YDL128W | yeast gene YGR191W | yeast gene YGR260W | yeast gene YHR175W | yeast gene YJR077C | yeast gene YJR121W | yeast gene YLL028W | yeast gene YMR203W | yeast gene YOR270C | yeast gene YPR192W
0.3: yeast gene YOR153W
0.9: yeast gene YBR207W | yeast gene YBR298C | yeast gene YDR039C | yeast gene YDR342C | yeast gene YDR387C | yeast gene YFL054C | yeast gene YGL006W | yeast gene YGR082W | yeast gene YGR138C | yeast gene YGR224W | yeast gene YGR281W | yeast gene YJR106W | yeast gene YNL055C | yeast gene YOL156W | yeast gene YOR035C
1.7: yeast gene YDL198C
0.5: yeast gene YHL047C | yeast gene YOR273C
